Entries after “also recorded” stand apart in the source; their conditions may differ. Read-outs that look alike come from different tables or passages of the source.
Columns and labels:
[1] = molecular target: T1, CaBdf1 BD1 (Candida albicans, UniProt Q5A4W8); assay: Isothermal titration calorimetry (ITC); assay type: binding
T1 construct: made in house; host or cells: E. coli BL21(DE3)
Procedure: (§1) Proteins used for crystallization and for ITC. […] Cells were resuspended in buffer A (50 mM Tris-HCl pH 7.5, 300 mM NaCl, 10% glycerol, 25 mM imidazole, 5 mM β-mercaptoethanol and protease inhibitors) and lysed by sonication. The cleared lysate was incubated with Ni-NTA resin (Qiagen) and washed with buffer A containing 0.5 M NaCl. Proteins were eluted with 250 mM imidazole, dialysed overnight in the presence of His-tagged TEV protease against buffer A containing no imidazole and incubated with Ni-NTA resin to remove His-tagged species. Proteins were further purified on a Superdex 75 10/300 (GE Healthcare) column in 50 mM Hepes pH 7.5, 150 mM NaCl, 0.5 mM dithiothreitol (DTT). Proteins were concentrated to >20 mg ml^−1 on a Centricon device (Millipore) and used for ITC, TSA and crystallization experiments. […] Expression and purification were performed as above, except that buffer A was replaced by buffer B (50 mM Hepes pH 7.5, 500 mM NaCl, 5% glycerol, 5 mM imidazole and protease inhibitors) and gel filtration was performed in 10 mM Hepes pH 7.5, 500 mM NaCl and 5% glycerol.
(§2) Calorimetric experiments were performed on a NanoITC calorimeter (TA Instruments) at 25 °C while stirring at 250 r.p.m. All proteins were buffer exchanged by gel filtration into 50 mM Hepes pH 7.5, 150 mM NaCl, 0.5 mM DTT, except for SMARCA2 and SMARCA4A BDs, which were exchanged into 10 mM Hepes pH 7.5, 500 mM NaCl and 5% glycerol. […] Titrations consisted of an initial injection of 1.5 μl followed by 19 identical injections of 2.5 μl made at time intervals of 5 min. ITC data were corrected for the heat of dilution of injectant into buffer and analysed with software provided by the manufacturer using a single binding site model. The first data point was excluded from the analysis. Thermodynamic parameters determined from the ITC data are summarized in Supplementary Table 1.

[2] = molecular target: T2, SMARCA2 BD (Homo sapiens, UniProt P51531); assay: Isothermal titration calorimetry (ITC); assay type: binding
T2 construct: Human SMARCA2 and SMARCA4 BD plasmids bearing an N-terminal His tag and TEV protease site; His tag with TEV site (N, cleaved yes); 73250; host or cells: E. coli BL21(DE3)
T2 sequence (P51531 1378-1506 limits assumed): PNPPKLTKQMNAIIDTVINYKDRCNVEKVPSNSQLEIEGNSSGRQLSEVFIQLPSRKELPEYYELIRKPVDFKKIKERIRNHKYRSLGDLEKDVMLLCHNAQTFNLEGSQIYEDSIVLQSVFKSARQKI
Procedure: as §1, §2

[3] = molecular target: T3, SMARCA4 BD (Homo sapiens, UniProt P51532); assay: Isothermal titration calorimetry (ITC); assay type: binding
T3 construct: Human SMARCA2 and SMARCA4 BD plasmids bearing an N-terminal His tag and TEV protease site; His tag with TEV site (N, cleaved yes); 74664; host or cells: E. coli BL21(DE3)
T3 sequence (P51532 1453-1564 limits assumed): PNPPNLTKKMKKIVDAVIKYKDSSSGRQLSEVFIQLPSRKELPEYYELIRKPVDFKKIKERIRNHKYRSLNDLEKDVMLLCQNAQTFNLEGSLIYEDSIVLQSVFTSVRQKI
Procedure: as §1, §2

[4] = test system: 32 representative human (BET and non-BET) BDs; assay: BROMOscan profiling (DiscoverX); assay type: binding; details: 10 μM; 35% of control used as cutoff for significant inhibition
Procedure: (§3) BROMOscan profiling was performed by DiscoverX (Fremont, CA, USA). […] Ligand-loading densities were optimized as described.

[5] = molecular target: T2, SMARCA2 BD; assay: BROMOscan profiling (DiscoverX); assay type: binding; details: as read by reviewer from the BROMOscan data
Procedure: as §3

[6] = test system: C. albicans; assay: C. albicans growth assay in liquid media; assay type: cell-based; details: for antifungal activity against mutant strains in which either BD1 or BD2 was inactivated (in words): liquid media, WT allele repressed
Procedure: Growth on liquid media. C. albicans strains were grown at 30 °C in SC medium to an OD600 of 0.5–0.8. For the evaluation of growth defects related to Bdf1 mutations, log-phase growing cells were counted using a Neubauer chamber and diluted in liquid media to a final concentration of 5,400 cells per ml per well in a sterile 96-well plate. Dox (50 μg ml^−1) or methionine (5 mM)/cysteine (0.25 mM) were added to the media if required. Plates were incubated at 30 °C and OD600 was measured using a Multiskan FC Microplate Photometer (Thermo Fisher). For the evaluation of chemical compounds, strains were grown in SC medium supplemented with 50 μg ml^−1 Dox or 5 mM methionine/0.25 mM cysteine 24 h before counting and then seeded in 96-well plates at the same concentration as mentioned above, with or without chemical compounds. Statistical tests were performed using two-sided Welch t-tests.

[7] = molecular target: T1, CaBdf1 BD1; assay type: binding; details: CaBdf1 BD1 WT; for Peptide array signal, raw data, Left: left replicate array; for Peptide array signal, raw data, Rigt: right replicate array
Procedure: (§4) In short, arrays were blocked and incubated with 1 μM of purified CaBdf1 BD1 or BD2. Arrays were incubated with recombinant BDs for 2 h at 4 °C in binding buffer (Tris-HCl 50 mM pH 7.4, NP-40 0.1%, NaCl 150 mM, glycerol 10%). […] Assays were performed in duplicate.

[8] = molecular target: T4, CaBdf1 BD1 Y248F (Candida albicans, UniProt Q5A4W8, Y248F); assay: Histone peptide microarray binding, YF mutant; design: species or system C. albicans; details: CaBdf1 BD1 YF mutant; for Peptide array signal, raw data, Left: left replicate array; for Peptide array signal, raw data, Right: right replicate array
T4 construct: made in house; host or cells: E. coli BL21(DE3), inferred from the wild-type GST construct
T4 sequence (Q5A4W8 193-327 Y248F): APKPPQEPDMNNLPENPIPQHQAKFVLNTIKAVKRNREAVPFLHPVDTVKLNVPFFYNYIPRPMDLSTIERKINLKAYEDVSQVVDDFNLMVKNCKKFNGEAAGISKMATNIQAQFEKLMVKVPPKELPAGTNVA
Procedure: as §4, with “duplicate. Images were acquired on a Bio-Rad ChemiDoc XRS Imaging machine and data were quantified using the array analyser software provided by Active Motif.” for “duplicate.”

[9] = molecular target: T5, CaBdf1 BD2 Y425F (Candida albicans, UniProt Q5A4W8, Y425F); assay: Histone peptide microarray binding, YF mutant; design: species or system C. albicans; details: CaBdf1 BD2 YF mutant; for Peptide array signal, raw data, Left: left replicate array; for Peptide array signal, raw data, Right: right replicate array
T5 construct: made in house; host or cells: E. coli BL21(DE3), inferred from the wild-type GST construct
T5 sequence (Q5A4W8 361-501 Y425F): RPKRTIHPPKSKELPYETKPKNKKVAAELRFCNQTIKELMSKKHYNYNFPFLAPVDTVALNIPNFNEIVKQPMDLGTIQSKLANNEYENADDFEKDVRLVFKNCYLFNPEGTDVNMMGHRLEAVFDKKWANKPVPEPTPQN
Procedure: as §4, with “duplicate. Images were acquired on a Bio-Rad ChemiDoc XRS Imaging machine and data were quantified using the array analyser software provided by Active Motif.” for “duplicate.”

[10] = molecular target: T6, CaBdf1 BD2 (Candida albicans, UniProt Q5A4W8); assay: HTRF assay, inhibition of BD binding to H4ac4 peptide; design: made in house; host or cells: E. coli BL21(DE3)
Target sequence in this assay (Q5A4W8 361-501): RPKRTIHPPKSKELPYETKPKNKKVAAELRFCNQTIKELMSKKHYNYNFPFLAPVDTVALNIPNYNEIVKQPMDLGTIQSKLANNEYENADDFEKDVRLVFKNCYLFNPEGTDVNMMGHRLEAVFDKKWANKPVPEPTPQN

[11] = molecular target: T6, CaBdf1 BD2; assay type: binding; design: made in house; host or cells: E. coli BL21(DE3); details: CaBdf1 BD2 WT; for Peptide array signal, raw data, Left: left replicate array; for Peptide array signal, raw data, Rigt: right replicate array
Procedure: as §4
Target sequence in this assay (Q5A4W8 361-501): as above

[12] = molecular target: T6, CaBdf1 BD2; assay: Isothermal titration calorimetry (ITC); assay type: binding; design: His tag with TEV site (N, cleaved yes); made in house; host or cells: E. coli BL21(DE3)
Procedure: as §1, §2
Target sequence in this assay (Q5A4W8 386-491): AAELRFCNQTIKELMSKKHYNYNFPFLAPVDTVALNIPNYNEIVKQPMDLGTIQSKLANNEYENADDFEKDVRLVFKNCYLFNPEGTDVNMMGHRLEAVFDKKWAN

[13] = molecular target: T7, human Brd4 BD1 (Homo sapiens, UniProt O60885); assay: BROMOscan profiling (DiscoverX); assay type: binding; design: purchased DiscoverX; host or cells: T7 phage grown in an E. coli host derived from BL21; details: 10 μM; as read by reviewer from the BROMOscan data
Procedure: as §3

[14] = molecular target: T7, human Brd4 BD1; assay: HTRF assay, inhibition of BD binding to H4ac4 peptide; design: human Brd4 BD1 (residues 22–204); His tag with TEV site (N, cleaved yes); made in house; host or cells: E. coli BL21(DE3)
[15] = molecular target: T7, human Brd4 BD1; assay: Isothermal titration calorimetry (ITC); assay type: binding; design: human Brd4 BD1 (residues 22–204); His tag with TEV site (N, cleaved yes); made in house; host or cells: E. coli BL21(DE3)
Procedure: as §1, §2

[16] = molecular target: T1, CaBdf1 BD1; assay: HTRF assay, inhibition of BD binding to H4ac4 peptide; design: species or system C. albicans; details: for IC50: H4ac4 peptide, read-out: IC50
[17] = molecular target: T8, human Brd4 BD2 (Homo sapiens, UniProt O60885); assay: as above
T8 construct: GST-tagged human Brd4 BD2 (residues 349–460) was purchased from Reaction Biology Corp; purchased Reaction Biology Corp

T1 sequence (Q5A4W8 193-327): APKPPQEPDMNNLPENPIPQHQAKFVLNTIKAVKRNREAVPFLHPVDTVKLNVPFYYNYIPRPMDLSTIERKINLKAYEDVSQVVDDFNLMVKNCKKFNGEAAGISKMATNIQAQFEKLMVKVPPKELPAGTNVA

| SMILES | N (stoichiometry) ([1]; ITC, 25 °C) | TΔS ([1]; ITC, 25 °C) [kcal/mol] | ΔH ([1]; ITC, 25 °C) [kcal/mol] | binding to SMARCA2 BD (in words) [2] | binding to SMARCA4 BD (in words) [3] | activity against human BDs in BROMOscan (in words) [4] | antifungal activity against mutant strains in which either BD1 or BD2 was inactivated (in words) [6] | Peptide array signal, Normalized (0 to 100%), Average [7] [%] | Peptide array signal, raw data, Left [7] | Peptide array signal, raw data, Rigt [7] | Peptide array signal, raw data, Left [8] | Peptide array signal, raw data, Right [8] | Peptide array signal, raw data, Left [9] | Peptide array signal, raw data, Right [9] | Peptide array signal, Normalized (0 to 100%), Average [11] [%] | Peptide array signal, raw data, Left [11] | Peptide array signal, raw data, Rigt [11] | IC50 ([16]; HTRF) [µM] | also measured |
| --- | --- | --- | --- | --- | --- | --- | --- | --- | --- | --- | --- | --- | --- | --- | --- | --- | --- | --- | --- |
| O=C1c2ccccc2Sc2cc(-c3noc(-c4cnccn4)n3)ccc2N1C1CC1 [Compound 1] | 0.91 ± 0.06 | 4.885 | -2.34 ± 0.621 | no detectable binding; also recorded: did not detectably bind | no detectable binding; also recorded: did not detectably bind | no significant inhibition was detected; also recorded: no significant activity; also recorded: do not significantly inhibit | little antifungal activity; also recorded: did not significantly inhibit growth | 0 | 0 | 0.003741 | 0 | 0.001715 | 0 | 0.001456 | 0.259 | 0.004804 | 0.01167 |  | inhibition at 10 µM [5]: ~65%; inhibition of CaBdf1 BD2 (in words) ([10]; HTRF): no or only modest binding and inhibition; binding to CaBdf1 BD2 (in words) ([12]; ITC): no or only modest binding and inhibition; inhibition in BROMOscan (in words) [13]: hardly inhibits; IC50 ([14]; HTRF, H4ac4 peptide): ~40 µM; inhibition of Brd4 BD1 (in words) ([14]; HTRF, highest concentration 20 μM): no or only modest binding and inhibition; binding to Brd4 BD1 (in words) ([15]; ITC): no or only modest binding and inhibition |
| Cc1ccc(Nc2c(-c3ccc(O)cc3)nc3c(C)cccn23)cc1 [Compound 2] |  |  |  | no detectable binding; also recorded: no significant inhibition | no detectable binding; also recorded: no significant inhibition | no significant inhibition was detected; also recorded: do not significantly inhibit | little antifungal activity | 0.0725 | 0.0005345 | 0.004276 | 0.003429 | 0.002743 | 0.0004854 | 0.002427 | 0.37 | 0.005491 | 0.01304 | ≥ 40 | IC50 [17]: ≥ 40 µM; IC50 [10]: 1.1 µM; Kd [12]: 2.1 µM; N (stoichiometry) ([12]; ITC, 25 °C): 1.21 ± 0.11; TΔS ([12]; ITC, 25 °C): 2.01 kcal/mol; ΔG ([12]; ITC, 25 °C): -7.741 kcal/mol; ΔH ([12]; ITC, 25 °C): -5.74 ± 0.96 kcal/mol |
| CN1C(=O)c2ccccc2Sc2cc(NC(=O)C3CCCO3)ccc21 (stereo not shown) [Compound 3] | 1.05 ± 0.03 | 0.44 | -6.81 ± 0.12 |  |  |  |  | 0.0363 | 0.001069 | 0.003207 | 0.004458 | 0.001715 | 0.001942 | 0.002427 | 0.296 | 0.005491 | 0.01167 | 1.7 ± 0.6 | inhibition of CaBdf1 BD1 (in words) ([16]; HTRF): low-micromolar affinity; IC50 for Brd4 BD1 relative to IC50 for CaBdf1 BD1 ([16]; HTRF IC50 ratio): 7 fold; Kd [1]: 4.8 ± 0.2 µM; ΔG ([1]; ITC, 25 °C): -7.251 kcal/mol; EC50 ([6]; Candida albicans, read-out: cellular EC50): 35 ± 7 µM; growth of strains expressing WT Bdf1 or Bdf1 inactivated in BD1 (functional BD2) (in words) ([6]; liquid culture, Met/Cys or Dox): little effect; also recorded: insensitive; growth of strains inactivated in BD2 (bdf1-bd2Δ, bdf1-Y425F) (in words) ([6]; liquid culture, Met/Cys or Dox): significantly inhibited; also recorded: compromises the in vitro growth; also recorded: sensitive; IC50 [14]: 12.5 ± 0.8 µM; Kd [15]: 13.4 ± 1.7 µM; N (stoichiometry) ([15]; ITC, 25 °C): 0.92 ± 0.03; TΔS ([15]; ITC, 25 °C): 3.107 kcal/mol; ΔG ([15]; ITC, 25 °C): -6.644 kcal/mol; ΔH ([15]; ITC, 25 °C): -3.54 ± 0.454 kcal/mol |

Source: article PMC5454392, “Selective BET bromodomain inhibition as an antifungal therapeutic strategy” (Nature Communications, 2017)
